Test results from PMC6394990, “Detailed characterization of the solution kinetics and thermodynamics of biotin, biocytin and HABA binding to avidin and streptavidin” (PLoS ONE, 2019).
Where “and” joins values, the source holds several entries; their conditions need not be identical. Equal values may be shown once. Read-outs that look alike come from different tables or passages of the source.

Target: T1, avidin (AV) (Gallus gallus, UniProt P02701)
T1 construct: purchased Calbiochem (La Jolla, CA)
Assay: Stopped-flow association kinetics of dye-labeled biotin probes binding to avidin (F(t), rF(t); Arrhenius plots/global fitting)
Set-up: ln(k) / dS+ / dG+ / Eon for BFl / b of the line y = m1x+b1: unit not given here
Settings: for k(average): k (full value)
Experimental: These reactions were carried out in a buffered solution of 10 mM Tris-HCl, 100 mM KCl, 2.5 mM MgCl2 and 1 mM CaCl2 at pH 8 and only AV-BcO reactions included pH 9 and 10. The concentrations, after mixing, were of 20 nM of dye-labeled B7 probe and 260 nM, 520 nM or 1040 nM of AV; and 200 nM, 300 nM, 400 nM or 800 nM of SAV at temperatures of 10, 15, 20 and 25°C. The deglycosylation of AV (for comparative association reactions) was carried out using the provided standard protocol with endoglycosidase H [47], both with and without incubation of a denaturant solution (2% SDS and 1M 2-mercaptoethanol).
The reactions were collected with the SF instrument, described previously. The fluorescence signal was collected through a 520 nm interference filter (Oriel Corp., Stratford, CT) with a detector time constant and SF dead time of 1 μs and 1 ms, respectively. The excitation light was provided by the Coherent Ar^+ ion laser (described above) at 488 nm with […] of incident power on the reaction cuvette. The laser source was followed by the photo-elastic modulator described above with the axis oriented 45^o with respect to the electric vector of the incident light and with the half-wave modulation (50 kHz) set for 488 nm excitation. The demodulation circuitry following the photomultiplier provided a DC(t) and a rectified AC(t) which were converted to digital data by a high-speed digitizer (PCI-5122) from National Instruments (Austin, TX) with 14-bit resolution and 100 MHz bandwidth, through channels 0 and 1. The data acquisition was controlled by LabVIEW (Vr 8) software at a collection rate of 6120 data points/second and stored in spreadsheets. The AC(t) and DC(t) data were baseline corrected before obtaining the signal ratio (Eq 4) as a function of time (ρt).
The constant AGain is the instrumental amplitude gain and was evaluated by solving ρ(t) using the known steady state anisotropy (rss) of the complexes which is equivalent to the r(t) at t = ∞; and H, obtained from the equivalent grating factor (G) for the filters and photo multiplier tubes in the SF. For the probes used in here G was 0.82 and H = (1-G)/(1+G) = 0.099. Knowing Again and H, the AC(t) and DC(t) signals can be solved for r(t) and F(t) (Eqs 4 and 5) and the normalized fluorescence, F¯(t) , and corrected fluorescence anisotropy, rF¯(t), were obtained when F¯(0) and rF¯(0) were scaled to 1 at t = 0.
The F¯(t) (Eq 6) is equivalent to (I||) + 2 (I⊥) and proportional to quantum yield (QYi), molar absorptivity (εi) and to the formation or disappearance of the emitting species Xi(t); and rF¯(t) including the steady state anisotropies (rss) of each fluorescent species (Eq 7).
The possible reaction models were discriminated by the squared residuals of the observed and calculated association traces of both fluorescence and anisotropy fluorescence signals, F¯(t) and rF¯(t) , respectively.

[1] = AV, average over the dye-labeled B7 probes, used for AV-B7

T1 sequence (P02701 25-152): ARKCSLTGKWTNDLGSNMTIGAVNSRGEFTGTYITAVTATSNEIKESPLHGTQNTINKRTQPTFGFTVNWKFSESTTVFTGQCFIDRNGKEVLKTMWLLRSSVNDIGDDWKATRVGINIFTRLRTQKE

O=C(O)CCCC[C@@H]1SC[C@@H]2NC(=O)N[C@@H]21 [B7, d-biotin]
Eaon + (-∆H°) (AV-B): 36.5 ± 1.3 kcal/mol | ∆G°ǂ + (-∆G°) (AV-B): 25.4 ± 1.0 kcal/mol | ∆S°ǂ + (-∆S°) (AV-B): 41.9 ± 2.0 cal/mol°K | ΔE = Ea^Forward-Ea^Backward (AV-B7, column 3 minus 4): -23.2 ± 2.2 kcal/mol and -23.2 kcal/mol | ΔG° ^ǂ, Forward -ΔG° ^ǂ, Backward (AV-B7, column 3 minus 4): -20.0 ± 4.0 kcal/mol | ΔS° ^ǂ, Forward -ΔS° ^ǂ, Backward (AV-B7, column 3 minus 4): -11.0 ± 2.5 cal/mol°K | fold slower than 10^9 M^-1s^-1 (diffusion limited) (AV, 25°C): 54-714 X | ΔG^ǂ, Forward [1]: 4.7 ± 0.3 kcal/mol and 4.7 kcal/mol | ΔS^ǂ, Forward [1]: 32 cal/°K·mol | ΔS^ǂ, Forward (AV, average over the dye-labeled B7 probes, used for AV-B7, listed as B): 33.0 ± 2.0 cal/°K·mol

O=C(CCCC[C@@H]1SC[C@@H]2NC(=O)N[C@@H]21)NCCNC(=O)c1ccc(-c2c3ccc(=O)cc-3oc3cc(O)ccc23)c(C(=O)O)c1 [BFl, Biotin-4-fluorescein]
kon fold slower than Green's 7 × 10^7 M^-1s^-1 (25°C and pH 8 vs 25°C and pH 5): 3.8 X | fold by which the SPR kon (ref 20) is slower than the kon of the probe (AV): ~ 9 X | kon (AV, 25°C, read-out: kon): ~1.9e+07 M⁻¹ s⁻¹ | Ea^Forward (AV, pH 8): 14.6 ± 0.6 kcal/mol | ln(k) (AV, pH8, 10 (283.15 K)): 15.4 | k(average) (AV, pH8, 10 (283.15 K)): 4.86E+06 | kon (AV, pH8, 10 (283.15 K), k (scaled)): 4.9e+06 M⁻¹ s⁻¹ | ln(k) (AV, pH8, 15 (288.15 K)): 15.8 | k(average) (AV, pH8, 15 (288.15 K)): 7.60E+06 | kon (AV, pH8, 15 (288.15 K), k (scaled)): 7.6e+06 M⁻¹ s⁻¹ | ln(k) (AV, pH8, 20 (293.15 K)): 16.2 | k(average) (AV, pH8, 20 (293.15 K)): 1.07E+07 | kon (AV, pH8, 20 (293.15 K), k (scaled)): 1.07e+07 M⁻¹ s⁻¹ | ln(k) (AV, pH8, 25 (298.15 K)): 16.7 | k(average) (AV, pH8, 25 (298.15 K)): 1.85E+07 | kon (AV, pH8, 25 (298.15 K), k (scaled)): 1.85e+07 M⁻¹ s⁻¹ | ΔG^ǂ (AV, pH 8, forward): 4.2 ± 0.5 kcal/mol | ΔS^ǂ (AV, pH 8, forward): 34.9 ± 2.0 cal/°K·mol | slope (Arrhenius linear fit) (AV, ph8): -7342.9 | kcal/mol (from Arrhenius slope) (AV, ph8, the values are: Ea forward): 14.6 kcal/mol | Eon for BFl (Enthalpy block, AV): 14.4 | kon (pH 8, AV, pH 8, 10°C, read-out: kon): 4.86e+06 ± 600000 M⁻¹ s⁻¹ | kon (pH 8, AV, pH 8, 15°C, read-out: kon): 7.6e+06 ± 2e+06 M⁻¹ s⁻¹ | kon (pH 8, AV, pH 8, 20°C, read-out: kon): 1.07e+07 ± 1.6e+06 M⁻¹ s⁻¹ | kon (pH 8, AV, pH 8, 25°C, read-out: kon): 1.85e+07 ± 2e+06 M⁻¹ s⁻¹
